Measurements taken from EPA's ToxValDB 9.5 (doi:10.2903/j.efsa.2014.3237).
≈ marks a conversion by molar mass, not a printed value.

Experiments:
Apis mellifera = settings: acute; duration: 48 hours; oral; unspecified; mortality
Cyprinus carpio = settings: acute; duration: 96 hours; mortality
Oryctolagus sp. = settings: reproduction developmental; body weight
Daphnia magna = settings: chronic/long-term; duration: 21 days; reproduction
Colinus virginianus = settings: for LD50: acute, oral
Tagia sp. = settings: mortality
Pimephales promelas = settings: chronic/long-term; duration: 28 days; growth
Mus musculus = settings: chronic; duration: 18 months; histopathology: neoplastic
Bibionidae = settings: chronic/long-term; duration: 28 days; development
Aphidius rhopalosiphi = test: LR50; higher = less toxic; settings: acute; duration: 48 hours; mortality
Typhlodromus pyri = test: LR50; higher = less toxic; settings: acute; duration: 7 days; mortality

Cc1c(Br)c2ccc(F)cc2n1S(=O)(=O)c1ncn(S(=O)(=O)N(C)C)n1 [Amisulbrom]
LD50 (Apis mellifera): > 100 µg/piece | LC50 (Cyprinus carpio): 0.0229 µg/mL (≈ 0.0491 µM) | LD50 (Rattus norvegicus; acute, oral): > 5000 mg/kg-day | NOAEL (Rattus norvegicus; chronic, duration: 2 years, histopathology: neoplastic): 11.1 mg/kg-day | NOAEL (Rattus norvegicus; reproduction developmental, reproduction): 48.5 mg/kg-day | NOAEL (Oryctolagus sp.): 30 mg/kg-day | NOEC (Daphnia magna): 0.0197 mg/L | LD50 (Colinus virginianus): > 2000 mg/kg-day | LD50 (Colinus virginianus; diet): > 1080 mg/kg-day | NOEC (Colinus virginianus; reproduction developmental): 34.2 mg/kg-day | LC50 (Tagia sp.; acute, duration: 14 days): > 1000 mg/kg | NOEC (Tagia sp.; chronic/long-term, duration: 28 days): 93.7 mg/kg | NOEC (Pimephales promelas): 0.037 mg/L | NOAEL (Mus musculus): 11.6 mg/kg-day | NOEC (Bibionidae): 0.111 mg/L | LR50 (Aphidius rhopalosiphi): > 1000 g/ha | LR50 (Typhlodromus pyri): > 1000 g/ha
